This note sets out measurements from patent US20050197350A1, “Novel quinoline, tetrahydroquinazoline, and pyrimidine derivatives and methods of treatment related to the use thereof” (TAISHO PHARMACEUTICAL CO., LTD., priority 2003, published 2005).

This experiment relates to MCH receptors. In words: MCH receptor activity class (method not given).
[1] abbreviates: class by percent of control at 10^-7 M or IC50.
[2] abbreviates: MCH receptor, class by percent of control at 10^-7 M or IC50.
[3] abbreviates: activity class per percent of control at 10^-7 M or IC50.
The mark [4] stands for this setting: class by percent of control at 10^−7 M or IC50.
[5] abbreviates: class 1-3 by percent of control at 10^-7 M or IC50.

As for `CN(C)c1nc(N[C@H]2CC[C@@H](CNC(=O)Nc3cc(Cl)cc(Cl)c3)CC2)nc2c1CCCC2` [compound 2485], the class under setting [1] was 3 (Class 3 The value of percent of control at 10^−7 M was more than 60% or the value of IC50 was more than 200 nM.).
For the compound `CN(C)c1ccnc(N[C@H]2CC[C@@H](CNC(=O)C3CC(=O)c4ccccc43)CC2)n1` (relative stereo) [compound 935, N-[(cis-4-{[4-(dimethylamino)pyrimidin-2-yl]amino}cyclohexyl)methyl]-3-oxoindane-1-carboxamide], the class under setting [1] was 1 (Class 1: The value of percent of control at 10^−7 M was less than 40% or the value of IC50 was less than 50 nM.).
`Cc1ccc(Cl)cc1NC(=O)N[C@H]1CC[C@@H](Nc2nc3c(c(N(C)C)n2)CCCC3)CC1` [compound 1900]: under setting [2], the class is 3 (Class 3 The value of percent of control at 10^−7 M was more than 60% or the value of IC50 was more than 200 nM.).
For `CN(C)c1cc(N[C@H]2CC[C@@H](NC(=O)c3ccc(I)cc3)CC2)nc2ccccc12` [compound 41], the class under setting [2] is 3 (Class 3 The value of percent of control at 10^−7 M was more than 60% or the value of IC50 was more than 200 nM.).
In the case of `CCOc1ccccc1NC(=O)N[C@H]1CC[C@@H](Nc2cc(N(C)C)c3ccccc3n2)CC1` [compound 2142], the class under setting [1] is 3 (Class 3 The value of percent of control at 10^−7 M was more than 60% or the value of IC50 was more than 200 nM.).
Take `Cc1ccc(NC(=O)N[C@H]2CC[C@@H](Nc3nc4c(c(N(C)C)n3)CCCC4)CC2)cc1[N+](=O)[O-]` [compound 1894]: the class under setting [1] is listed as 3 (Class 3 The value of percent of control at 10^−7 M was more than 60% or the value of IC50 was more than 200 nM.).
In the case of `CN(C)c1nc(N[C@H]2CC[C@@H](CNCc3ccc(O)cc3Cl)CC2)nc2c1CCCC2` [compound 1388], under setting [1], the class was 2 (Class 2: The value of percent of control at 10^−7 M was from 40% to 60% or the value of IC′50 was from 50 nM to 200 nM.).
Turning to `COc1ccc(CSC2(CC(=O)N[C@H]3CC[C@@H](Nc4nc5c(c(N(C)C)n4)CCCC5)CC3)CCCCC2)cc1` [compound 989], the class under setting [3] is given as 3 (Class 3 The value of percent of control at 10^−7 M was more than 60% or the value of IC50 was more than 200 nM.).
On to `CN(C)c1ccnc(N[C@H]2CC[C@@H](NC(=O)c3ccc(F)c(F)c3)CC2)n1` [compound 251, N-(cis-4-{[4-(dimethylamino)pyrimidin-2-yl]amino}cyclohexyl)-3,4-difluorobenzamide], for which, under setting [1], the class is reported as 1 (Class 1: The value of percent of control at 10^−7 M was less than 40% or the value of IC50 was less than 50 nM.).
Turning to `CN(C)c1cc(N[C@H]2CC[C@@H](NC(=O)Nc3c(F)cc(Br)cc3Br)CC2)nc2ccccc12` [compound 2101], the class under setting [1] is recorded as 2 (Class 2: The value of percent of control at 10^−7 M was from 40% to 60% or the value of IC′50 was from 50 nM to 200 nM.).
Turning to `CCc1ccccc1CNC[C@H]1CC[C@@H](Nc2nc3c(c(N(C)C)n2)CCCC3)CC1` [compound 1443], under setting [1], the class is given as 3 (Class 3 The value of percent of control at 10^−7 M was more than 60% or the value of IC50 was more than 200 nM.).
For `CN(C)c1cc(N[C@H]2CC[C@@H](NC(=O)NCc3ccccc3F)CC2)nc2ccccc12` [compound 2143], under setting [1], the class is 3 (Class 3 The value of percent of control at 10^−7 M was more than 60% or the value of IC50 was more than 200 nM.).
As for `CCCc1ccccc1NC(=O)N[C@H]1CC[C@@H](Nc2cc(N(C)C)c3ccccc3n2)CC1` [compound 2112], the class under setting [1] was 3 (Class 3 The value of percent of control at 10^−7 M was more than 60% or the value of IC50 was more than 200 nM.).
For `Cc1ccc(NC(=S)N[C@H]2CC[C@@H](Nc3nc4c(c(N(C)C)n3)CCCC4)CC2)cc1Cl` [compound 2010], under setting [2], the class is reported as 3 (Class 3 The value of percent of control at 10^−7 M was more than 60% or the value of IC50 was more than 200 nM.).
With `CN(C)c1cc(N[C@H]2CC[C@@H](NC(=O)Nc3ccccc3-c3ccccc3)CC2)nc2ccccc12` [compound 2124], the class under setting [1] is given as 3 (Class 3 The value of percent of control at 10^−7 M was more than 60% or the value of IC50 was more than 200 nM.).
Regarding `CN(C)c1cc(N[C@H]2CC[C@@H](NC(=O)C3CC(=O)c4ccccc43)CC2)nc2ccccc12` (relative stereo) [compound 684], under setting [1], the class is reported as 3 (Class 3 The value of percent of control at 10^−7 M was more than 60% or the value of IC50 was more than 200 nM.).
`CN(C)c1nc(N[C@H]2CC[C@@H](CNC(=O)c3ccc(I)o3)CC2)nc2c1CCCC2` [compound 1068]: under setting [3], the class is 3 (Class 3 The value of percent of control at 10^−7 M was more than 60% or the value of IC50 was more than 200 nM.).
`CN(C)c1ccnc(N[C@H]2CC[C@@H](NC(=O)Nc3c(F)cc(Br)cc3Br)CC2)n1` [compound 2191, N-(2,4-dibromo-6-fluorophenyl)-N′-(cis-4-{[4-(dimethylamino)pyrimidin-2-yl]amino}cyclohexyl)urea]: under setting [1], the class is 1 (Class 1: The value of percent of control at 10^−7 M was less than 40% or the value of IC50 was less than 50 nM.).
Take `CN(C)c1cc(N[C@H]2CC[C@@H](NCc3ccc(F)c(Cl)c3)CC2)nc2ccccc12` [compound 1121]: the class under setting [3] is on record as 3 (Class 3 The value of percent of control at 10^−7 M was more than 60% or the value of IC50 was more than 200 nM.).
For the compound `CN(C)c1nc(N[C@H]2CC[C@@H](CNC(=O)C3CC(=O)c4ccccc43)CC2)nc2c1CCCC2` (relative stereo) [compound 1071], under setting [3], the class is listed as 3 (Class 3 The value of percent of control at 10^−7 M was more than 60% or the value of IC50 was more than 200 nM.).
Consider `CN(C)c1ccnc(N[C@H]2CC[C@@H](NC(=O)c3cc(C(F)(F)F)ccc3F)CC2)n1` [compound 283], for which, under setting [1], the class is 3 (Class 3 The value of percent of control at 10^−7 M was more than 60% or the value of IC50 was more than 200 nM.).
Regarding `Cc1cc(N(C)C)nc(NC[C@H]2CC[C@@H](NC(=O)c3ccc(Br)c(C)c3)CC2)n1` [compound 2745, 4-bromo-N-[cis-4-({[4-(dimethylamino)-6-methylpyrimidin-2-yl]amino}methyl)cyclohexyl]-3-methylbenzamide], the class under setting [4] is reported as 2 (Class 2: The value of percent of control at 10^−7 M was from 40% to 60% or the value of IC′50 was from 50 nM to 200 nM.).
For the compound `CN(C)c1nc(N[C@H]2CC[C@@H](NC(=O)Nc3cc(F)cc(C(F)(F)F)c3)CC2)nc2c1CCCC2` [compound 1872], the class under setting [1] is given as 3 (Class 3 The value of percent of control at 10^−7 M was more than 60% or the value of IC50 was more than 200 nM.).
As to `COc1cc(CN[C@H]2CC[C@@H](Nc3nc4c(c(N(C)C)n3)CCCC4)CC2)cc(I)c1O` [compound 1343], the class under setting [1] is 2 (Class 2: The value of percent of control at 10^−7 M was from 40% to 60% or the value of IC′50 was from 50 nM to 200 nM.).
With `CN(C)c1nc(N[C@H]2CC[C@@H](NC(=O)COc3c(F)c(F)c(F)c(F)c3F)CC2)nc2c1CCCC2` [compound 558], the class under setting [5] is 3 (Class 3 The value of percent of control at 10^−7 M was more than 60% or the value of IC50 was more than 200 nM.).
In the case of `COc1ccc(C(=O)N[C@H]2CC[C@@H](Nc3nc4c(c(N(C)C)n3)CCCC4)CC2)cc1OC` [compound 540], the class under setting [5] is 3 (Class 3 The value of percent of control at 10^−7 M was more than 60% or the value of IC50 was more than 200 nM.).
In the case of `CN(C)c1ccnc(N[C@H]2CC[C@@H](NC(=O)c3ccc(Br)o3)CC2)n1` [compound 833, 5-bromo-N-(cis-4-{[4-(dimethylamino)pyrimidin-2-yl]amino}cyclohexyl)-2-furamide], under setting [1], the class is on record as 1 (Class 1: The value of percent of control at 10^−7 M was less than 40% or the value of IC50 was less than 50 nM.).
With `CN(C)c1cc(N[C@H]2CC[C@@H](NC(=S)Nc3cccc4ccccc34)CC2)nc2ccccc12` [compound 2174], the class under setting [1] was 3 (Class 3 The value of percent of control at 10^−7 M was more than 60% or the value of IC50 was more than 200 nM.).
For the compound `CN(C)c1cc(N[C@H]2CC[C@@H](CNC(=O)Cc3ccc(F)cc3Cl)CC2)nc2ccccc12` [compound 790], the class under setting [1] was 3 (Class 3 The value of percent of control at 10^−7 M was more than 60% or the value of IC50 was more than 200 nM.).
Consider `CN(C)c1cc(N[C@H]2CC[C@@H](NC(=O)c3ccc(Br)o3)CC2)nc2ccccc12` [compound 694, 5-bromo-N-(cis-4-{[4-(dimethylamino)quinolin-2-yl]amino}cyclohexyl)-2-furamide], for which, under setting [1], the class was 1 (Class 1: The value of percent of control at 10^−7 M was less than 40% or the value of IC50 was less than 50 nM.).
For `CCC(C(=O)N[C@H]1CC[C@@H](Nc2nccc(N(C)C)n2)CC1)c1ccccc1` (relative stereo) [compound 284], the class under setting [1] is recorded as 3 (Class 3 The value of percent of control at 10^−7 M was more than 60% or the value of IC50 was more than 200 nM.).
Consider `CN(C)c1nc(N[C@H]2CC[C@@H](CNC(=O)C(c3ccccc3)c3ccccc3)CC2)nc2c1CCCC2` [compound 594], for which, under setting [5], the class was 3 (Class 3 The value of percent of control at 10^−7 M was more than 60% or the value of IC50 was more than 200 nM.).
`COc1cc2ccccc2cc1CN[C@H]1CC[C@@H](Nc2nccc(N(C)C)n2)CC1` [compound 1522]: the class (activity class 1-3: percent of control at 10^-7 M or IC50) was 3 (Class 3 The value of percent of control at 10^−7 M was more than 60% or the value of IC50 was more than 200 nM.).
Consider `CN(C)c1nc(N[C@H]2CC[C@@H](NC(=O)c3cc(C(C)(C)C)nn3C)CC2)nc2c1CCCC2` [compound 522], for which the class under setting [5] is on record as 3 (Class 3 The value of percent of control at 10^−7 M was more than 60% or the value of IC50 was more than 200 nM.).
As to `CN(C)c1ccnc(N[C@H]2CC[C@@H](NC(=O)c3cc(C(C)(C)C)nn3Cc3ccccc3)CC2)n1` [compound 303], the class under setting [1] is on record as 2 (Class 2: The value of percent of control at 10^−7 M was from 40% to 60% or the value of IC′50 was from 50 nM to 200 nM.).
Turning to `Cc1cnc(N[C@H]2CC[C@@H](NC(=O)c3cc(Br)cc(Br)c3)CC2)nc1N(C)C` [compound 2933], the class under setting [4] is listed as 1 (Class 1: The value of percent of control at 10^−7 M was less than 40% or the value of IC50 was less than 50 nM.).
